Reference: article PMC10116527 (ACS Omega, 2023)
Where two headings read alike, the source gives them in different places.

Columns and labels:
PI3Kα [1] = molecular target: T1, PI3Kα (Homo sapiens, UniProt P42336); test: Adapta universal kinase assay; assay type: biochemical; details: read-out: % inhibition against PI3Kα enzyme ± SD ^b
PI3Kα [2] = molecular target: T1, PI3Kα; test: Adapta universal kinase assay; assay type: biochemical; details: read-out: % inhibition against PI3Kα enzyme ± SD ^b; remark: listed apart in the source

T1 sequence (P42336 whole entry): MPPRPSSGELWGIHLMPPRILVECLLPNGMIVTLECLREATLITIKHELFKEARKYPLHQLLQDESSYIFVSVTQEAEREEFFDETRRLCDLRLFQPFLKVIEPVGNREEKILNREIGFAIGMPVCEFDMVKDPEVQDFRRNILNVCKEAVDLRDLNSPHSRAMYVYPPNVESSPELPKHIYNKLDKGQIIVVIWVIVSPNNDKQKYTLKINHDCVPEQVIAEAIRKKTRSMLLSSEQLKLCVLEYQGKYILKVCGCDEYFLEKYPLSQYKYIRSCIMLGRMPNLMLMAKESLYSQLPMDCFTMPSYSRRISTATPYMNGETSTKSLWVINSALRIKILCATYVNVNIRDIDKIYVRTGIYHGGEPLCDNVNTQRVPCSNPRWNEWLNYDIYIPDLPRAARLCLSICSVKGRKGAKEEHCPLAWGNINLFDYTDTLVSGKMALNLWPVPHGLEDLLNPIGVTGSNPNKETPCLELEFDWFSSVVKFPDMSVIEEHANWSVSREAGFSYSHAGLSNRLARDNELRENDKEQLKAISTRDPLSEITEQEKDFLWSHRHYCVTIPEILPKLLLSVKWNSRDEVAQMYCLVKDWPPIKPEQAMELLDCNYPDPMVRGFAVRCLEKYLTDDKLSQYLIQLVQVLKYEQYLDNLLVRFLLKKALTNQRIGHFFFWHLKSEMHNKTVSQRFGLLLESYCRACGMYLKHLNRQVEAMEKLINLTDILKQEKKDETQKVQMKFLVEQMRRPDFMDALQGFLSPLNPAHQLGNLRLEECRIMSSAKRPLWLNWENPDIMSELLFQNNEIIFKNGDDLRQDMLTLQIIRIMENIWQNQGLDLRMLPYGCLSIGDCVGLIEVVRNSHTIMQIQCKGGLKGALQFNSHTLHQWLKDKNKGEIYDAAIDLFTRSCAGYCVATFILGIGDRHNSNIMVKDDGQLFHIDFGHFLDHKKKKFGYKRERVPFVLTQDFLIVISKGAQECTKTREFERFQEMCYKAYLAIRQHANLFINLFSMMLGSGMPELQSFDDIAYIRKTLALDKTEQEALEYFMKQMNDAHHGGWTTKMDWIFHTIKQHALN
T1 sequence (P27986 2-724, further chain): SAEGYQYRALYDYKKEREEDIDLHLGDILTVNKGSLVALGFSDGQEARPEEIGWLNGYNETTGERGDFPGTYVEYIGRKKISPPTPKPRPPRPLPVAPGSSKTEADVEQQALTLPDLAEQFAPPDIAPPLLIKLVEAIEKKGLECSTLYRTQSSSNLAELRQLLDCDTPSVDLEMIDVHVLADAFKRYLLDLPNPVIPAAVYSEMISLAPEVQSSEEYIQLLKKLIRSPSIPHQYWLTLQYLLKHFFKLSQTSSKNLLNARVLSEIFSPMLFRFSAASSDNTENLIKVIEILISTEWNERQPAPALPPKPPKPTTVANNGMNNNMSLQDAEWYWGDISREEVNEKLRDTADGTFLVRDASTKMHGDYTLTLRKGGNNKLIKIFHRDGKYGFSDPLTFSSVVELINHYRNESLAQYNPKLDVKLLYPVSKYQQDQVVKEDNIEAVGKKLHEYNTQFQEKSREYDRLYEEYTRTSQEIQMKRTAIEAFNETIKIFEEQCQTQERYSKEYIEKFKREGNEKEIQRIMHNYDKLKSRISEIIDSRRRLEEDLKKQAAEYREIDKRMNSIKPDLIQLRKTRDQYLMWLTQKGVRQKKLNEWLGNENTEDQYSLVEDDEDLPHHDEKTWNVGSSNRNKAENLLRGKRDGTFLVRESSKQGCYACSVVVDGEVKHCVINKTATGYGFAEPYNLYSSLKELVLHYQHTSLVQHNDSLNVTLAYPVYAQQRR

Row | SMILES | inhibition at 100 µM (PI3Kα [1]) | inhibition at 100 µM (PI3Kα [2])
1 | CCN(CC)c1nc(NCc2ccccc2)nc(Nc2ccc(S(=O)(=O)Nc3ccccn3)cc2)n1 [compound 20, 4-{[4-(Benzylamino)-6-(diethylamino)-1,3,5-triazin-2-yl]amino}-N-(pyridin-2-yl)benzene-1-sulfonamide] | 46% | 
2 | CCN(CC)c1nc(Nc2ccc(S(=O)(=O)NC(=N)N)cc2)nc(N2CCOCC2)n1 [compound 34, 1-(4-{[4-(Diethylamino)-6-(morpholin-4-yl)-1,3,5-triazin-2-yl]amino}benzene-sulfonyl)guanidine] |  | 68 ± 3%
